According to patent publication US9291619B2, “Method for detecting non-transferrin bound iron” (Yissum Research Development Company of the Hebrew …, priority 2011, dated 2016):
Structures can show the parent of a compound that is named as a salt.

Legend:
Format in all cases: biochemical, human
[1] = eLPI assay (LPI assay with added NTA); settings: for serum concentration of chelator required for reducing eLPI by 2 μM: 2 hr incubation with thalassemia serum at room temperature, eLPI assay (0.5 mM NTA)
Protocol: (§1) LPI determination, The LPI (Labile iron in plasma) assay was used as described previously or in the presence of NTA added from a concentrated solution. In experiments testing the effects of various additives on LPI, 20 μl of the additives dissolved in HBS (HEPES buffered saline composed of 20 mM HEPES, 150 mM NaCl, pH 7.4) were mixed with 20 μl of serum. Control samples and iron standards were similarly diluted with HBS. LPI assays without added NTA (‘redox-active LPI’) are designated “LPI” and LPI assays with added NTA (0.5 mM unless stated otherwise) are designated “eLPI”.
As the iron-mobilizing effect of NTA on NTBI has been previously shown to be dependent on the NTA concentration, the effect of increasing NTA concentrations on LPI levels in 9 representative sera: 7 from thalassemia patients and 2 from normal individuals (FIG. 1) was assessed. […] The detected LPI signal reached maximum levels at 0.1 mM NTA in sera with LPI <1 μM and at 0.5 mM NTA in thalassemic sera with LPI >1 μM. Control sera […] remained LPI-negative at all tested concentrations of NTA, a finding corroborated in LPI tests carried out with 0.5 mM NTA on >100 sera from normal individuals (data not shown). The same values of LPI were obtained when sera were assayed with 0.5 mM NTA present in the final assay solution or when sera were preincubated with NTA for 1 hr prior to 10-fold dilution with assay solution lacking NTA. Based on the relatively fast (within minutes) and distinct extraction/mobilization of LPI components by moderate NTA treatment depicted in FIG. 1, a modality of the original LPI assay by incorporating 0.5mM NTA as extracting/mobilizing agent was adopted and referred to as enhanced LPI (eLPI).

[2] = DCI (directly chelatable iron) assay with fluorescein-DFO; settings: for effect of added serum component on DCI values: added to thalassemia sera
Source text: DCI determination. The DCI assay (directly chelatable iron) was used for sample analysis of labile iron by assessing its binding to fluorescein-DFO (Table 1) with a fluorescence plate reader or adapted for flow cytometry using as analytical probe fluorescein and DFO covalently coupled to chemically modified polystyrene beads (Spherotec Inc., Lake Forest, Ill., USA) (and an Eclipse instrument (iCyt, Champaign, Ill., USA) (Breuer et al, to be published elsewhere). In tests of the effect of NTA on DCI determination, NTA was added from a stock solution directly to the assay reagents. In experiments testing the effects of various additives on DCI, 20 μl of the additives dissolved in HBS were mixed with 20 μl of serum samples and the combined mixture (40 μl) was used in the assay. Control samples and iron standards were similarly diluted with HBS. In previous publications the term DCI has always indicated the assay format without NTA. In the present work the two formats of the
DCI assay are designated DCI (−) (without NTA) and DCI (+) (with 0.1 mM NTA).
For comparing eLPI with NTBI, the present inventors have employed an alternative assay for NTBI, termed directly-chelatable iron or DCI (FIG. 2, lower panel). Unlike LPI and eLPI which measure iron redox activity, DCI measures the accessibility of NTBI to a fluorescent, high-affinity chelator probe (fluorescein-DFO). […] This was confirmed by testing 22 TM sera for DCI without and with 0.1 mM NTA. An average increase of 0.14±0.13 μM was obtained in the presence of NTA (Breuer, W. and Cabantchik, Z. I, unpublished observations). The concentration of NTA in the DCI assay had to be limited to 0.1 mM to avoid contributions from holo-Tf-iron. Release of iron from holo-Tf by various carboxylate ligands such as NTA in combination with DFO has been documented previously. […] The present inventors tentatively attribute the exogenous albumin-mediated reduction of DCI to the binding of the fluorescein moiety of fluorescein-DFO to one of purified-albumin's hydrophobic binding sites, leading to a partial loss of sensitivity to quenching of the fluorescent chelator by iron. As the majority of such sites is normally occupied in plasma, their interference with the above assay should be minor

[3] = LPI (labile plasma iron) assay without NTA; settings: for serum concentration of chelator required for reducing LPI by 2 μM: 2 hr incubation with thalassemia serum at room temperature, LPI assay without NTA; for effect of added serum component on measured LPI values: added to sera from 6 thalassemic patients, citrate 0.15 mM, albumin 10 mg/ml, uric acid 0.5 mM
Protocol: Determination of LPI and DCI. The properties of the assays used in this study in their different modalities are compiled in Table 2, below.
as §1
Measurements of LPI were originally designed for the detection of labile forms of iron in native human plasma or serum. The purpose was to assess if those labile forms could serve as indicators of impending tissue iron overload and as direct targets of chelation, on the basis that they should be comprised of chemical forms that are distinguishable from the non-labile Tf-bound iron in that they are redox-active, exchangeable with other ligands and accessible to chelators. This led to simple and sensitive assays that are performed under nearly physiological conditions, with 40 μM ascorbate added to initiate redox cycling of the iron and ensuing generation of reactive oxygen species (ROS) that are quantified by a fluorescence assay (Table 1). […] Thus, the assay avoids the inadvertent detection of transferrin-bound iron or labile iron-chelates. The detected LPI reflects the most labile or redox-active forms of NTBI in native plasma or serum, but not putative forms bound to non-labile ligands (e.g. citrate, albumin) In addition, the detection of LPI might be susceptible to masking by plasma antioxidants. […] For comparison, they also used a more direct assay for NTBI, in which DFO-chelatable iron is determined by its stoichiometric binding to the probe fluorescein-DFO in the presence and absence of an iron mobilizing agent.

Row | Compound | serum concentration of chelator required for reducing eLPI by 2 μM [1] [µM] | serum concentration of chelator required for reducing LPI by 2 μM [3] [µM] | effect of added serum component on DCI values [2] | effect of added serum component on measured LPI values [3] | further results
1 | CC(=O)N(O)CCCCCNC(=O)CCC(=O)N(O)CCCCCNC(=O)CCC(=O)N(O)CCCCCN [DFO, deferrioxamine] | ~10 | < 10 | – | – | competition with fluorescein-DFO in preventing the detection of DCI ([2]; DCI assays without and with NTA): competed efficiently
2 | Cc1c(O)c(=O)ccn1C [DFP, 1,2-dimethyl-3-hydroxypyridin-4-one] | ~75 | ~25 | – | – | concentration in the serum required to decrease DCI by 2 μM, compared with LPI and eLPI ([2]; DCI assays without and with NTA, 2 hr incubation with thalassemia serum): markedly greater
3 | O=C(O)CC(O)(CC(=O)O)C(=O)O [citrate, sodium citrate] | – | – | Neither citrate nor uric acid significantly affected DCI values | significantly attenuated | –
4 | O=c1[nH]c(=O)c2[nH]c(=O)[nH]c2[nH]1 [uric acid] | – | – | Neither citrate nor uric acid significantly affected DCI values | significantly attenuated | –
5 | iron-saturated Tf: human apo-Tf saturated with iron (ferrous ammonium sulfate), dialyzed | – | – | – | – | effect of added serum component on eLPI values ([1]; 1 mg/ml added to 6 thalassemia sera in the presence of NTA): no significant effect
